Data taken from US11447500B2, “Thienopyridine derivatives and pharmaceutical composition comprising same” (WELLMARKER BIO CO., LTD., priority 2018, dated 2022).
Structures can show the parent of a compound that is named as a salt.

Legend:
RON kinase = target: T1, RON kinase (Homo sapiens, UniProt Q04912); assay: RON kinase enzyme inhibitory activity, FRET (TR-FRET) technique; type: biochemical; conditions: 60 min reaction
T1 construct: purchased Carna Bioscience
Method: The enzyme inhibitory activity (IC50) of the thienopyridine derivative was measured using FRET (fluorescence resonance energy transfer) technique. RON kinase (Carna Bioscience) was diluted with a kinase assay buffer (50 mM HEPES pH 7.5, 1 mM EGTA, 10 mM MgCl2, 2 mM DTT, and 0.01% Tween-20) to a concentration of 2× (0.4 nM) the final reaction concentration and the dilution was added to a 384-well plate at 5 μL/well. As sample compounds, the compounds synthesized in the examples of the present invention and the compounds of the comparative examples were used. The sample compounds were respectively dissolved in 100% DMSO to obtain 1 mM stock solutions, which were then subjected to eight 10-fold serial dilutions. The sample compounds were diluted with the kinase assay buffer to a concentration of 4× the final reaction concentration, and the dilutions were added to the 384-well plate at 2.5 μL/well. The plate was incubated at room temperature for 15 minutes. Next, 0.25 M ATP solution (Sigma Aldrich) was diluted with the kinase reaction buffer to a concentration of 4× (60 μM) the final reaction concentration, and a tyrosine peptide substrate (Perkin-Elmer) was diluted therein to a concentration of 4× (400 nM) the final reaction concentration. The dilution was added to the 384-well plate at 2.5 μL/well. Then, the 384-well plate was incubated at room temperature and the reaction was allowed to proceed for 60 minutes. After 60 minutes, EDTA (Sigma Aldrich) was diluted with TR-FRET detection buffer (Perkin-Elmer) to a concentration of 4× (40 mM) the final reaction concentration. A europium-labeled anti-phosphotyrosine antibody (Perkin-Elmer) was diluted in the above EDTA dilution to a concentration of 4× (8 nM) the final reaction concentration to prepare a stop solution of the RON kinase reaction. The stop solution was added to the 384-well plate at 10 μL/well to terminate the reaction, and the plate was incubated at room temperature for 60 minutes. Thereafter, the plate was read on Victor X5 plate reader (Perkin-Elmer). At this time, the excitation wavelength was 340 nm and the emission wavelengths were 620 nm and 665 nm. The IC50 values of the sample compounds were determined using GraphPad Prism™ 5 by expressing the emission energy at 665 nm as a function of the sample compound concentration.

[1] = tested on: RON-activated KM12C colon cancer cell line; assay: Cell killing efficacy, trypan blue exclusion assay, KM12C; type: cell-based; conditions: 48 hours
Method: (§1) Two colon cancer cell lines, RON-activated KM12C (80015, KCLB, MEM+10% FBS) and RON-mutated (Δ160) HT-29 (30038, KCLB, RPMI+10% FBS) were prepared in 6-well plates at 5×10^4 cells/well, respectively. After 24 hours, while freshly changing the medium, the sample compounds were added to the wells at a concentration of 1 μM or 5 μM and the plates were allowed to stand for 48 hours.
(§2) As the sample compounds, the compounds synthesized in the examples of the present invention and the compounds of the comparative examples were used.
(§3) After 48 hours, the cell suspensions were collected and centrifuged (1,500 rpm, 4 min.) to obtain the cells, and live cells and dead cells were quantitated (n=2) through a trypan blue (15250-061, Gibco) exclusion assay. The statistical analysis was performed using Excel™ T-test from Microsoft.
(§4) The cell death rates of the compounds of Examples and Comparative Examples were respectively measured and the results are shown in Table 4 as relative ratios to Comparative Example 1.

[2] = tested on: RON-mutated (Δ160) HT-29 colon cancer cell line; assay: Cell killing efficacy, trypan blue exclusion assay, HT-29; type: cell-based; conditions: HT29 cell, 48 hours
Method: as §1, §2, §3, §4

T1 sequence (Q04912 25-1400): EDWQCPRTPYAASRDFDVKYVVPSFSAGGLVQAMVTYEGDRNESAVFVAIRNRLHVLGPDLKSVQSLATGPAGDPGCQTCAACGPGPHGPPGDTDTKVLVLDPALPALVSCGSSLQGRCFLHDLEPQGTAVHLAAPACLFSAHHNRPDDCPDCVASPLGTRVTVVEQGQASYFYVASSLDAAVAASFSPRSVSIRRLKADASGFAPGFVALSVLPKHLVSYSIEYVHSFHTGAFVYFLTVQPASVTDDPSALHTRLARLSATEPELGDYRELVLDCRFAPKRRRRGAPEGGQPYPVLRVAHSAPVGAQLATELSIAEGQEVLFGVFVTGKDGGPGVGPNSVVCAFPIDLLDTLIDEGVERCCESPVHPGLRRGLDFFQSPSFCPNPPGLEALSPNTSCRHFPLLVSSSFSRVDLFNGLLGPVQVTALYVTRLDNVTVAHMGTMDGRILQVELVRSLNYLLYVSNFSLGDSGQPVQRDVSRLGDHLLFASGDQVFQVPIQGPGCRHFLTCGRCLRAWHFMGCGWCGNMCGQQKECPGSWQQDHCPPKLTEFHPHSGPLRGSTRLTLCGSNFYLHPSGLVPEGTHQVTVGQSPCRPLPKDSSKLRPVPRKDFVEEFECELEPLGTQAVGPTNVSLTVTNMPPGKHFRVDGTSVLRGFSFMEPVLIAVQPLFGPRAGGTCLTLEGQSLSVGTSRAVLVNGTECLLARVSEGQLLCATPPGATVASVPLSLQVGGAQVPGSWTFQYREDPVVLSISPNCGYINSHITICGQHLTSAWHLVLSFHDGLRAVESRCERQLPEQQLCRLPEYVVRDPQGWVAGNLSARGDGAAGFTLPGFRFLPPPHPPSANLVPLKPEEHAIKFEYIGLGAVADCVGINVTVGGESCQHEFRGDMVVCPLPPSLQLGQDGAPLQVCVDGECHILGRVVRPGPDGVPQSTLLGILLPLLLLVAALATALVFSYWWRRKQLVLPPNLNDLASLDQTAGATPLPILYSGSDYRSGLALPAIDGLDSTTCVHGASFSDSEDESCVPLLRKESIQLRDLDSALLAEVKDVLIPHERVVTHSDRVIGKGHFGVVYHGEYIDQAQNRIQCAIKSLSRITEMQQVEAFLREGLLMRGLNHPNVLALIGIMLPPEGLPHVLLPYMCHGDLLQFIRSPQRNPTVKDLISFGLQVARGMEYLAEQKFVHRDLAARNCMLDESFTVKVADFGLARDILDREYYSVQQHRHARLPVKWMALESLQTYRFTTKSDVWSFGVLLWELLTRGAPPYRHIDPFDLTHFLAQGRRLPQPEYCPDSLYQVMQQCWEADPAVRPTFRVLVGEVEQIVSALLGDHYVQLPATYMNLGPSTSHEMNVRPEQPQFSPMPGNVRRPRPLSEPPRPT

Structure (SMILES)	IC50 (RON kinase)	Cell death rate (Relative to Comp. Ex. 1) ([1]; 1 μM)	Cell death rate (Relative to Comp. Ex. 1) ([1]; 5 μM)	Cell death rate (Relative to Comp. Ex. 1) ([2]; 1 μM)	Cell death rate (Relative to Comp. Ex. 1) ([2]; 5 μM)
CCOc1ccn(-c2ccc(Cl)cc2)c(=O)c1C(=O)Nc1ccc(Oc2ccnc3cc(-c4ccc(CNCCOC)cn4)sc23)c(F)c1.Cl [Example 8, 1-(4-chlorophenyl)-4-ethoxy-N-(3-fluoro-4-{[2-(5-{[(2-methoxyethyl)amino]methyl}pyridin-2-yl)thieno[3,2-b]pyridin-7-yl]oxy}phenyl)-2-oxo-1,2-dihydropyridine-3-carboxamide Hydrochloride]	0.01 nM	x 0.92	x 1.19	x 2.24	x 2.52
COCCNCc1ccc(-c2cc3nccc(Oc4ccc(NC(=O)c5c(OC)ccn(-c6ccccc6)c5=O)cc4F)c3s2)nc1.Cl [Example 3, N-(3-fluoro-4-{[2-(5-{[(2-methoxyethyl)amino]methyl}pyridin-2-yl)thieno[3,2-b]pyridin-7-yl]oxy}phenyl)-4-methoxy-2-oxo-1-phenyl-1,2-dihydropyridine-3-carboxamide Hydrochloride]	0.42 nM	x 0.66	x 1.26	x 1.80	x 2.22
COc1ccc2c(Oc3ccc(NC(=O)c4c(C)n(CC(C)(C)O)n(-c5ccccc5)c4=O)cc3F)ccnc2c1 [Comp. Ex. 2, N-(3-fluoro-4-(7-methoxyquinolin-4-yloxy)phenyl)-1-(2-hydroxy-2-methylpropyl)-5-methyl-3-oxo-2-phenyl-2,3-dihydro-1H-pyrazole-4-carboxamide, reference compound]	2.89 nM	x 0.38	x 0.31	x 0.59	x 0.32
CCOc1ccn(-c2ccc(F)cc2)c(=O)c1C(=O)Nc1ccc(Oc2ccnc3cc(-c4ccc(CNCCOC)cn4)sc23)c(F)c1.Cl [Example 7, 4-ethoxy-N-(3-fluoro-4-{[2-(5-{[(2-methoxyethyl)amino]methyl}pyridin-2-yl)thieno[3,2-b]pyridin-7-yl]oxy}phenyl)-1-(4-fluorophenyl)-2-oxo-1,2-dihydropyridine-3-carboxamide Hydrochloride]	0.28 nM	x 2.38	x 1.32	x 2.97	x 2.90
CCOc1ccn(-c2ccc(F)cc2)c(=O)c1C(=O)Nc1ccc(Oc2ccnc3cc(-c4ccc(CN(C)CCOC)cn4)sc23)c(F)c1 [Example 30, 4-ethoxy-N-(3-fluoro-4-{[2-(5-{[(2-methoxyethyl)(methyl)amino]methyl}pyridin-2-yl)thieno[3,2-b]pyridin-7-yl]oxy}phenyl)-1-(4-fluorophenyl)-2-oxo-1,2-dihydropyridine-3-carboxamide Hydrochloride]	0.88 nM	x 2.48	x 2.06	x 1.34	x 1.07
COCCNCc1ccc(-c2cc3nccc(Oc4ccc(NC(=O)c5cccn(-c6ccc(F)cc6)c5=O)cc4F)c3s2)nc1.Cl [Example 4, N-(3-fluoro-4-{[2-(5-{[(2-methoxyethyl)amino]methyl}pyridin-2-yl)thieno[3,2-b]pyridin-7-yl]oxy}phenyl)-1-(4-fluorophenyl)-2-oxo-1,2-dihydropyridine-3-carboxamide Hydrochloride]	0.68 nM	x 0.59	x 0.80	x 3.51	x 3.63
COCCNCc1ccc(-c2cc3nccc(Oc4ccc(NC(=O)c5c(OC)ccn(-c6ccc(F)cc6)c5=O)cc4Cl)c3s2)nc1.Cl [Example 9, N-(3-chloro-4-{[2-(5-{[(2-methoxyethyl)amino]methyl}pyridin-2-yl)thieno[3,2-b]pyridin-7-yl]oxy}phenyl)-1-(4-fluorophenyl)-4-methoxy-2-oxo-1,2-dihydropyridine-3-carboxamide Hydrochloride]	0.08 nM	x 2.26	x 2.87	x 4.08	x 3.53
COCCNCc1ccc(-c2cc3nccc(Oc4ccc(NC(=O)c5c(C)cnn(-c6ccccc6)c5=O)cc4F)c3s2)nc1.Cl [Example 18, N-(3-fluoro-4-{[2-(5-{[(2-methoxyethyl)amino]methyl}pyridin-2-yl)thieno[3,2-b]pyridin-7-yl]oxy}phenyl)-5-methyl-3-oxo-2-phenyl-2,3-dihydropyridazine-4-carboxamide Hydrochloride]	0.77 nM	x 0.56	x 1.09	x 1.33	x 1.37
COCCNCc1ccc(-c2cc3nccc(Oc4ccc(NC(=O)c5c(OC)ccn(-c6ccc(F)cc6)c5=O)cc4F)c3s2)nc1.Cl [Example 2, N-(3-fluoro-4-{[2-(5-{[(2-methoxyethyl)amino]methyl}pyridin-2-yl)thieno[3,2-b]pyridin-7-yl]oxy}phenyl)-1-(4-fluorophenyl)-4-methoxy-2-oxo-1,2-dihydropyridine-3-carboxamide Hydrochloride]	0.1 nM	x 1.33	x 0.74	x 0.62	x 1.15
COCCNCc1ccc(-c2cc3nccc(Oc4ccc(NC(=O)c5c(OC)ccn(-c6ccc(F)cc6)c5=O)cc4)c3s2)nc1.Cl [Example 11, 1-(4-fluorophenyl)-4-methoxy-N-(4-{[2-(5-{[(2-methoxyethyl)amino]methyl}pyridin-2-yl)thieno[3,2-b]pyridin-7-yl)oxy)phenyl)-2-oxo-1,2-dihydropyridine-3-carboxamide Hydrochloride]	0.26 nM	x 0.99	x 1.65	x 1.16	x 0.94
COCCNCc1ccc(-c2cc3nccc(Oc4ccc(NC(=O)c5cc(Cl)cn(-c6ccc(F)cc6)c5=O)cc4F)c3s2)nc1 [Example 24, 5-chloro-N-(3-fluoro-4-{[2-(5-{[(2-methoxyethyl)amino]methyl}pyridin-2-yl)thieno[3,2-b]pyridin-7-yl]oxy}phenyl)-1-(4-fluorophenyl)-2-oxo-1,2-dihydropyridine-3-carboxamide Hydrochloride]	24.2 nM				
